Assay results reported in PMC6222696, “Inhibition of UGT2B7 Enzyme Activity in Human and Rat Liver Microsomes by Herbal Constituents” (Molecules : A Journal of Synthetic Chemistry and Natural …, 2018).
Where “and” joins values, the source holds several entries; their conditions need not be identical. Identical values can stand only once. Like-named read-outs stand apart in the source and are kept apart here.

What was measured:
UGT2B7 [1] = target: T1, UGT2B7 (Homo sapiens, UniProt P16662); design: method as in PMID 24631340; conditions: non-competitive inhibition; read-out: inhibition constant (Ki) for ZDV glucuronidation in HLM; cited from earlier work
T1 sequence (P16662 24-529): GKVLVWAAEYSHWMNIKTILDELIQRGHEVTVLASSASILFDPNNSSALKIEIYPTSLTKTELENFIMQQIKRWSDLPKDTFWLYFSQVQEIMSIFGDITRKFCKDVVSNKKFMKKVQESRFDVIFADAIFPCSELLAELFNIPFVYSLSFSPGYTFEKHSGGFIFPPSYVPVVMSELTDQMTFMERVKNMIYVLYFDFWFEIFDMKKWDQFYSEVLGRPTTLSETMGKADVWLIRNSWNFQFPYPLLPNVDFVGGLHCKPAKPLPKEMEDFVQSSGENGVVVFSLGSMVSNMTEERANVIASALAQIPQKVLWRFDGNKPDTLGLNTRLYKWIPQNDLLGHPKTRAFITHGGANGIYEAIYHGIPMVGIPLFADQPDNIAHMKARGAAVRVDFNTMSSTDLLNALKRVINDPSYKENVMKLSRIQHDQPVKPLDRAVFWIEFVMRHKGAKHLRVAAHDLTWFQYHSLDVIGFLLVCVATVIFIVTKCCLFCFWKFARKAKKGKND

UGT enzymes = conditions: cited from earlier work; for inhibition of UGT enzymes in HLM with 4MU as substrate (in words): 4MU nonspecific UGT substrate
[2] = cited from earlier work; for maximum plasma concentration: humans
HLM = system: HLM; design: method as in PMID 25204783; conditions: cited from earlier work
UGT2B7 [3] = conditions: cited from earlier work; for effect on UGT2B7 in vitro (in words): 19 (curcumin), 37, 70 (ketamine), 19, 20, 22, 23 (andrographolide); for UGT2B7, in vitro study: supersomes
UGT nonspecific [4] = system: UGT nonspecific; design: method as in ref 19-24 (andrographolide); 35-37 (mitragynine); 26, 27, 29, 31, 38, 39 (quercetin); conditions: rats; ref 19-24 (andrographolide); 35-37 (mitragynine); 26, 27, 29, 31, 38, 39 (quercetin); cited from earlier work
UGT2B7 [5] = test: Inhibition of ZDV glucuronidation in rat liver microsomes (RLM); conditions: for IC50 at 90 min: rat
Method: The livers were rinsed promptly with ice-cold distilled water followed by ice-cooled 67 mM potassium phosphate buffer (pH 7.4) containing 1.15% (w/v) KCl after removal from the rats. The livers were then homogenized in three volumes of the same buffer using Potter-Elvehjem homogenizer after blotted dry and weighed. After that, the homogenate was centrifuged at 12,500× g for 20 min at 4 °C. The resultant supernatant was further centrifuged at 100,000× g for 60 min at 4 °C to obtain the microsomal pellets. Each pellet obtained was scrapped and reconstituted in 0.3 mL of 67 mM potassium phosphate buffer with 1.15% (w/v) KCl and 20% (v/v) glycerol before homogenizing them together to obtain pooled microsomes. Microsomes were then transferred into several microfuge tubes and stored at −80 °C until used.
(§1) An incubation mixture in a total volume of 200 µL contained 100 mM Tris-HCl buffer at pH 7.4, 5 mM MgCl2, microsomal protein (0.2 mg/mL for HLM assay and 2 mg/mL for RLM assay) and 0.1 mg/mg protein of Brij58 was kept in ice for 10 min. […] The incubation volume was made up to 200 µL with distilled water in a 1.5 mL polypropylene microcentrifuge tube. After pre-incubation at 37 °C for 10 min in a shaking water bath, a reaction was started by the addition of 5 mM UDPGA and was further incubated (120 min for HLM and 90 min for RLM). Following the incubation, the reaction was terminated by adding 100 µL ice-cold acetonitrile containing 75 µM of 4MUG as the internal standard (IS). The sample was allowed for protein precipitation on ice for 15 min, then vortexed shortly, and centrifuged at 15,000 rpm for 10 min at 4 °C. Supernatant was transferred into HPLC vials for HPLC analysis.
Stock solutions for the herbal constituents were prepared at concentrations of 50 mM by dissolving them in their respective solvents. Andrographolide, arecoline, arecaidine, mangiferin and vanillin were dissolved in distilled water. […] Working solutions were prepared at concentrations of 5 mM in distilled water so that the final organic solvent concentrations in incubations were less than 2% (v/v).
(§2) Thirteen herbal constituents were screened for inhibition of ZDV glucuronidation in HLM and RLM. Screening experiments using three concentrations (1 µM, 10 µM and 100 µM) of each herbal constituent were conducted to screen for the inhibitory potential of the constituent. All incubation assays were performed in triplicate (n = 3).
The ZDVG concentration formed was quantified using the calibration curve of ZDVG. Final UGT2B7 specific activity value was expressed in pmol/min/mg protein.

UGT2B7 [6] = target: T1, UGT2B7; test: Inhibition of ZDV glucuronidation in human liver microsomes (HLM)
Method: as §1
Stock solutions for the herbal constituents were prepared at concentrations of 50 mM by dissolving them in their respective solvents. […] Working solutions were prepared at concentrations of 5 mM in distilled water so that the final organic solvent concentrations in incubations were less than 2% (v/v).
as §2
(§3) The ZDVG concentration formed was quantified using the calibration curve of ZDVG. Final UGT2B7 specific activity value was expressed in pmol/min/mg protein. […] Km and Vmax were determined using the same software under the enzyme-kinetic inhibition (substrate inhibition) model.

UGT nonspecific [7] = system: UGT nonspecific; design: method as in ref 26-30 (kaempferol); 26, 27, 29, 31, 38, 39 (quercetin); conditions: mammalian cells; ref 26-30 (kaempferol); 26, 27, 29, 31, 38, 39 (quercetin); cited from earlier work
UGT1A1 [8] = system: UGT1A1; design: method as in ref 26-30 (kaempferol); 35-37 (mitragynine); 26, 27, 29, 31, 38, 39 (quercetin); conditions: supersomes; ref 26-30 (kaempferol); 35-37 (mitragynine); 26, 27, 29, 31, 38, 39 (quercetin); cited from earlier work
UGT1A1 [9] = system: UGT1A1; design: method as in ref 26-30 (kaempferol); 26, 27, 29, 31, 38, 39 (quercetin); conditions: mammalian cells; ref 26-30 (kaempferol); 26, 27, 29, 31, 38, 39 (quercetin); cited from earlier work
UGT1A3 = system: UGT1A3; design: method as in ref 19-24 (andrographolide); 26-30 (kaempferol); 32-34 (mangiferin); 26, 27, 29, 31, 38, 39 (quercetin); conditions: supersomes; ref 19-24 (andrographolide); 26-30 (kaempferol); 32-34 (mangiferin); 26, 27, 29, 31, 38, 39 (quercetin); cited from earlier work
UGT1A6 [10] = system: UGT1A6; design: method as in ref 19-24 (andrographolide); 26-30 (kaempferol); 32-34 (mangiferin); 26, 27, 29, 31, 38, 39 (quercetin); conditions: supersomes; ref 19-24 (andrographolide); 26-30 (kaempferol); 32-34 (mangiferin); 26, 27, 29, 31, 38, 39 (quercetin); cited from earlier work
UGT1A9 = conditions: HLM, supersomes, cited from earlier work
UGT2B10 = system: UGT2B10; design: method as in ref 26-30 (kaempferol); 26, 27, 29, 31, 38, 39 (quercetin); conditions: supersomes; ref 26-30 (kaempferol); 26, 27, 29, 31, 38, 39 (quercetin); cited from earlier work
UGT1A1 [11] = system: UGT1A1; design: method as in PMID 18001207, PMID 19889883, PMID 25008344, PMID 24553666, PMID 29574133; conditions: mice; cited from earlier work
UGT1A6 [12] = system: UGT1A6; design: method as in PMID 18001207, PMID 19889883, PMID 24553666, PMID 22958586, PMID 10660112; conditions: mammalian cells; cited from earlier work
UGT2B17 = conditions: supersomes; ref 31 (gallic acid); 32-34 (mangiferin); 26, 27, 29, 31, 38, 39 (quercetin); cited from earlier work
UGT2B7 [13] = system: UGT2B7; design: method as in PMID 29425147; conditions: by inhibiting UGT2B7 activity; cited from earlier work
[14] = system: gluthathione-S-transferases enzyme; design: method as in PMID 15304356; conditions: in vitro; cited from earlier work
CYP3A4 = system: CYP3A4; design: method as in PMID 15270556; conditions: in vitro; cited from earlier work
[15] = humans, cited from earlier work
[16] = rats, cited from earlier work
UGT2B7 [17] = target: T1, UGT2B7; test: in vitro; conditions: HLM; for microsomal CLint: human liver microsomes, pH 7.4, CLint, Vmax/Km; for Km at 120 min: pH 7.4, Km, mean ± SD
Method: An incubation mixture in a total volume of 200 µL contained 100 mM Tris-HCl buffer at pH 7.4, 5 mM MgCl2, microsomal protein (0.2 mg/mL for HLM assay and 2 mg/mL for RLM assay) and 0.1 mg/mg protein of Brij58 was kept in ice for 10 min. […] The incubation volume was made up to 200 µL with distilled water in a 1.5 mL polypropylene microcentrifuge tube. After pre-incubation at 37 °C for 10 min in a shaking water bath, a reaction was started by the addition of 5 mM UDPGA and was further incubated (120 min for HLM and 90 min for RLM). […] The sample was allowed for protein precipitation on ice for 15 min, then vortexed shortly, and centrifuged at 15,000 rpm for 10 min at 4 °C. Supernatant was transferred into HPLC vials for HPLC analysis.
Once the initial velocity conditions had been established, the ZDV concentrations were varied to generate a saturation curve for determination of Michaelis constant (Km) and maximal velocity of reaction (Vmax) values of ZDV glucuronidation in HLM and RLM. The experiments were conducted in the absence and presence of BSA. Under optimized conditions, substrate concentrations used in incubation assay were varied from 0–5 mM of ZDV for HLM assay and 0–30 mM of ZDV for RLM assay. All assays were performed in triplicates (n = 3).
as §3

UGT2B7 [18] = test: ZDV glucuronidation kinetics in RLM; conditions: for Km at 90 min / microsomal CLint: rat; for Km at 90 min: pH 7.4, Km; for microsomal CLint: rat liver microsomes (pooled), pH 7.4, CLint, Vmax/Km
Method: as §1
Once the initial velocity conditions had been established, the ZDV concentrations were varied to generate a saturation curve for determination of Michaelis constant (Km) and maximal velocity of reaction (Vmax) values of ZDV glucuronidation in HLM and RLM. The experiments were conducted in the absence and presence of BSA. Under optimized conditions, substrate concentrations used in incubation assay were varied from 0–5 mM of ZDV for HLM assay and 0–30 mM of ZDV for RLM assay. All assays were performed in triplicates (n = 3). The enzyme kinetic parameters (Km and Vmax) were obtained by fitting kinetic models to the experimental data using GraphPad Prism version 5.01 for Windows.
as §3

[19] = IC50 for inhibition of ZDV glucuronidation in HLM, human liver microsomes, ZDV as UGT2B7 probe substrate, 1% (w/v) BSA
[20] = concentration showing 50% inhibition of ZDV glucuronidation in HLM (screening), screening at 1 µM, 10 µM and 100 µM

C=C1CC[C@@H]2[C@](C)(CO)[C@H](O)CC[C@@]2(C)[C@@H]1C/C=C1/C(=O)OC[C@H]1O [Andrographolide, andrographolide]
Ki (UGT2B7 [1]): 6.1 µM
inhibition of UGT enzymes in HLM with 4MU as substrate (in words) (UGT enzymes): weak inhibition
maximum plasma concentration ([2]; oral 20 mg of andrographolide four times a day): 1.34 µg/mL and 3.8 µM
maximum concentration in plasma ([2]; ingestion of 32.64 mg of andrographolide three times a day): 32.41 ng/mL and 0.09 µM
maximum concentration in plasma ([2]; ingestion of 200 mg of andrographolide three times a day): 58.6 ng/mL and 0.17 µM
glucuronidation as a substrate in HLM (in words) (HLM): glucuronidated
effect on UGT2B7 in vitro (in words) (UGT2B7 [3]): inhibit
UGT2B7, in vitro study (UGT2B7 [3]; HLM): UGT2B7 ↓ (HLM, supersomes)
UGT nonspecific, in vivo/ex vivo study (UGT nonspecific [4]): UGT nonspecific ↑ (rats)
inhibition of ZDV glucuronidation in RLM (in words) (UGT2B7 [5]; rat liver microsomes): weak inhibition
IC50 (UGT2B7 [6]; [19]): 6.18 ± 1.27 µM
IC50 (UGT2B7 [6]; [20]): < 100 µM

O=c1c(O)c(-c2ccc(O)cc2)oc2cc(O)cc(O)c12 [Kaempferol]
UGT nonspecific, in vitro study (UGT nonspecific [7]): UGT nonspecific ↑ (mammalian cells)
UGT1A1, in vitro study (UGT1A1 [8]): UGT1A1 ↓ (supersomes)
UGT1A1, in vitro study (UGT1A1 [9]): UGT1A1 ↑ (mammalian cells)
UGT1A3, in vitro study (UGT1A3): UGT1A3 ↓ (supersomes)
UGT1A6, in vitro study (UGT1A6 [10]): UGT1A6 ↓ (supersomes)
UGT1A9, in vitro study (UGT1A9; HIM): UGT1A9 ↓ (HLM, HIM, supersomes)
UGT2B7, in vitro study (UGT2B7 [3]; ref 26-30 (kaempferol), 35-37 (mitragynine)): UGT2B7 ↓ (supersomes)
UGT2B10, in vitro study (UGT2B10): UGT2B10 ↓ (supersomes)
UGT1A1, in vivo/ex vivo study (UGT1A1 [11]): UGT1A1 ↑ (mice)

O=c1c(O)c(-c2ccc(O)c(O)c2)oc2cc(O)cc(O)c12 [Quercetin, quercetin]
UGT nonspecific, in vitro study (UGT nonspecific [7]): UGT nonspecific ↑ (mammalian cells)
UGT1A1, in vitro study (UGT1A1 [8]): UGT1A1 ↓ (supersomes)
UGT1A1, in vitro study (UGT1A1 [9]): UGT1A1 ↑ (mammalian cells)
UGT1A3, in vitro study (UGT1A3): UGT1A3 ↓ (supersomes)
UGT1A6, in vitro study (UGT1A6 [12]): UGT1A6 ↑ (mammalian cells)
UGT1A9, in vitro study (UGT1A9; RLM): UGT1A9 ↓ (HLM, RLM, supersomes)
UGT2B17, in vitro study (UGT2B17): UGT2B17 ↓ (supersomes)
UGT nonspecific, in vivo/ex vivo study (UGT nonspecific [4]): UGT nonspecific ↑ (rat)

CNC1(c2ccccc2Cl)CCCCC1=O (centres unmarked) [ketamine, reference compound]
effect on UGT2B7 in vitro (in words) (UGT2B7 [3]): inhibit

CCC1CN2CCc3c([nH]c4cccc(OC)c34)C2CC1/C(=C\OC)C(=O)OC (centres unmarked) [mitragynine]
inhibition of 4MU glucuronidation in HLM (UGT enzymes; at a concentration of 1 μM): approximately 30 % of control activity
IC50 (UGT enzymes; read-out: IC50 for 4MU glucuronidation in HLM): > 1000 µM
maximum plasma concentration ([2]; M. speciosa tea with 11 mg mitragynine for seven days then 23 mg on the eighth day): 0.105 µg/mL and 0.26 µM
UGT nonspecific, in vivo/ex vivo study (UGT nonspecific [4]): UGT nonspecific ↑ (rats)
IC50 at 90 min (UGT2B7 [5]; pH 7.4, IC50 for inhibition of ZDV glucuronidation in RLM, rat liver microsomes, ZDV as probe substrate, 1% (w/v) BSA): 51.2 ± 5.95 µM
IC50 at 90 min (UGT2B7 [5]; pH 7.4, concentration inhibiting ZDV glucuronidation in RLM higher than 50% (screening), screening at 1 µM, 10 µM and 100 µM): < 100 µM
IC50 (UGT2B7 [6]; [19]): 8.11 ± 4.48 µM
IC50 (UGT2B7 [6]; [20]): < 100 µM

C[C@@H]1[C@H]2c3cc4c(cc3O[C@@]35OCOC3=CC(=O)[C@H](C[C@H]1C)[C@@H]25)OCO4 [sauchinone]
effect on zidovudine (ZDV) concentration in mice blood (in words) (UGT2B7 [13]): elevated

C/C1=C\CC(C)(C)/C=C/C(=O)/C(C)=C/CC1 [zerumbone]
effect on Phase II gluthathione-S-transferases enzyme (in words) [14]: induce
effect on metabolism mediated by CYP3A4 (in words) (CYP3A4): moderately inhibit
IC50 at 90 min (UGT2B7 [5]; rat liver microsomes (pooled), pH 7.4, probe zidovudine (ZDV), at or below its Km, IC50 for inhibition of ZDV glucuronidation in RLM, rat liver microsomes, ZDV as probe substrate, 1% (w/v) BSA): 8.14 ± 2.12 µM
IC50 at 90 min (UGT2B7 [5]; rat liver microsomes (pooled), pH 7.4, probe zidovudine (ZDV), at or below its Km, concentration inhibiting ZDV glucuronidation in RLM higher than 50% (screening), screening at 1 µM, 10 µM and 100 µM): < 100 µM
IC50 (UGT2B7 [6]; [19]): 4.57 ± 0.23 µM
IC50 (UGT2B7 [6]; [20]): < 100 µM

Cc1cn([C@H]2C[C@H](N=[N+]=[N-])[C@@H](CO)O2)c(=O)[nH]c1=O [zidovudine, 3′-Azido-3′-deoxythymidine]
in vivo systemic clearance ([15]; for 70 kg of man): 16.8 mL/min/kg
dose excreted as glucuronides [15]: approximately 75%
in vivo systemic clearance ([16]; for 0.25 kg of rat): 3 mL/min/kg
dose excreted as glucuronides [16]: ~10%
microsomal CLint (UGT2B7 [17]; with 1% BSA): 1.65 µL/min/mg
microsomal CLint (UGT2B7 [17]; without 1% BSA): 0.32 µL/min/mg
Km at 120 min (UGT2B7 [17]; with 1% BSA): 0.88 ± 0.05 mM
Km at 120 min (UGT2B7 [17]; without 1% BSA): 3.4 ± 0.7 mM
Km at 90 min (UGT2B7 [18]; with 1% BSA, mean ± SD): 6.77 ± 0.6 mM
Km at 90 min (UGT2B7 [18]; without 1% BSA, mean ± SD): 8.84 ± 1.19 mM
microsomal CLint (UGT2B7 [18]; with 1% BSA): 0.16 µL/min/mg
microsomal CLint (UGT2B7 [18]; without 1% BSA): 0.09 µL/min/mg
Vmax (UGT2B7 [18]; without 1% BSA, mean ± SD): 770 ± 39.82 pmol/mg/min

kaempferol-3-O-rutinoside [kaempferol-3-rutinoside]
inhibition of UGT enzymes in HLM with 4MU as substrate (in words) (UGT enzymes): did not significantly inhibit
